Assay results taken from patent US20250188085A1, “COMPOSITIONS AND METHODS FOR INHIBITION OF RAS” (THERAS, INC., priority 2022, published 2025).
Read-outs that look alike come from different tables or passages of the source.

Assays:
pERK in NCI-H358 cells = experiment: Cell-based pERK HTRF assay; details: 30 min incubation, read-out: pERK in NCI-H358 cell inhibition IC50
Protocol: pERK assays (Perkin Elmer) were used to determine the effectiveness of compounds of the present disclosure in disrupting KRAS G12C protein/effector signaling in cells.
On Day 1, cells (NCI-H358) were seeded into 96-well plates at 4×10^4 cells/well in complete growth media (RPMI, 10% FBS).
On Day 2, cells were treated with compounds at 0.25% DMSO. The source plate was created with compounds diluted in media at 5-fold the final assay concentration. The compounds were run in a 9-point concentration curve starting at 75 μM, with a 3-fold dilution between concentrations. 20 μL was transferred onto the cell plates (final volume in wells was 100 μL). Plates were harvested after 30 min incubation by aspirating media and adding kit-supplied 1× supplemented lysis buffer to all wells (75 μl per well). Plates were then placed on a plate shaker and incubated at 850 rpm for an additional 30 min.
Antibody mixture solution was prepared by diluting aliquoted d2 and Eu Cryptate antibodies 1:20 in kit supplied detection buffer, then mixed the diluted antibodies solutions (1:1 v:v). 4 μL of this solution was then added to a 384-well detection plate (Perkin Elmer; 6008230).
Samples were homogenized by pipetting up and down and then transferred (16 μL of cell lysates) from the 96-well cell culture plate to two wells of the HTRF 384-well detection plate containing the antibody solution. Plates were centrifuged (524 g for Imin) and allowed to incubate between 4 and 24 h at room temperature. Maximum signal is reached after 4 h incubation time and remains stable over a period of 24 hours. Therefore, readings can be made between 4 and 24 h of incubation. Plates were centrifuged again (524 g for Imin) and analyzed on the En Vision plate reader using the following settings: Excitation 320 nm, Bandwidth 75 nm; Emission 615 nm, Bandwidth 85 nm; Gain 100%; Flashes 100; Lag 60 μs.

[1] = target: T1, GppNHp-loaded KRAS4b (amino acids 1-169) G12C/C118S protein (Homo sapiens, UniProt P01116, C118S/G12C); experiment: Covalent cysteine 12 modification by MALDI-TOF MS, GppNHp-loaded KRAS G12C; type: binding; details: 15 minutes reaction time point
T1 construct: KRAS4b (amino acids 1-169) G12C/C118S protein; made in house
Protocol: (§1) Reaction: 1 μM of GppNHp-, GTP-, or GDP-loaded KRAS4b (amino acids 1-169) G12C/C118S protein (produced in-house by Protein Expression Laboratory, FNLCR/Leidos Biomed) in 20 mM 4-(2-hydroxyethyl)-1-piperazineethanesulfonic acid (HEPES) buffer containing 150 mM NaCl, 1 mM MgCl2, pH 7.3 was prepared freshly before assay. Ten-μL aliquots of protein were dispensed onto low volume 384-well plate, then 375 nL DMSO, and 25 nL of tested compounds from 5 mM DMSO stocks were added to appropriate wells using ECHO 555 acoustic liquid handler (Labcyte Inc.). For each reaction/assay, three blanks were prepared by mixing 10 μL of protein solution with 400 nL DMSO. The contents of the wells were carefully mixed by aspiration, and then each plate was sealed with an adhesive cover, centrifuged at 2000 g for 1 minute, and kept in the dark at room temperature until 5 min, 15 min, 30 min, or 2 h collections.
(§2) Target pretreatment: Before each assay MALDI target (Bruker MPT 384 ground steel BC) was pre-treated by pipetting on each spot 0.75 μL of saturated sinapinic acid in acetonitrile (ACN).
(§3) Sample preparation: At collection time point, 2 μL of reaction mixtures were pipetted out into 20 μL MALDI matrix solution (saturated solution of sinapinic acid in 1:1 ACN:water solution containing 0.75% trifluoroacetic acid (TFA)) deposited on 384 well polypropylene plate. Resulting solution was mixed by aspiration, centrifuged at 2000 g for 1 minute, then 1 μL aliquots were dispensed on pre-treated MALDI target using Beckman Coulter Biomek FXP 96/384-Span-8 Laboratory Automation Workstation. Finally, the MALDI target was dried under mild vacuum to produce spots with fine crystalline structure.
(§4) Measurements: MALDI-TOF measurements were performed on a Bruker Daltonics rapiflex Tissuetyper TOF-TOF mass spectrometer using linear mode and mass range from 18.6 to 21.6 kDa. Detector gain was set to 3.3× (483 V), sample rate to 5 GS/s, real time smoothing to medium (175 MHz), laser smart beam pattern was set to: “MS Thin Layer M5”, and the laser frequency was 10000 Hz. Spectra were automatically collected using custom Auto Xecute method. Laser power was auto adjusted using fuzzy control. The peak selection range was set to be between 19000 and 21500 Da. Peak evaluation uses half width parameter set to be smaller than 40 Da for processed spectrograms (centroid peak detection; smoothed by SavitzkyGolay algorithm using 7 m/z width and 2 cycles; baseline was subtracted using median algorithm with flatness 1 and median level 0.01). Fuzzy control used Proteins/Oligonucleotides protocol with minimum half width 1/10 times above threshold. Up to 40000 satisfactory shots were collected in 10000 shot steps. Dynamic termination was implemented to finish data collection when peak signal/noise ratio was reaching value of 50.
(§5) Spectra processing: Spectra were smoothed by SavitzkyGolay algorithm using 7 m/z width and three cycles. Centroid peak detection algorithm was used with signal to noise threshold set to 6, relative intensity threshold 4%, peak width 10 m/z and median baseline subtraction using flatness of 1 and median level of 0.01. Peak intensity and area under the peak were evaluated and recorded for all peaks between 19,300 Da and 21,550 Da.
(§6) Calculation of percent modification: Percent modification was calculated as a ratio of peak height for protein modified by compound to sum of peak height of remaining protein plus peak height for protein modified by compound. If multiple modifications were observed each was calculated as a ratio of peak height for given modification versus sum of peak heights for all observed protein species. Data reported in Table 5 are from 15 minutes reaction time point.

[2] = target: T2, Avi-KRAS G12C (1-169) GppNHp/RAF1 RBD-3×FLAG (52-151) (Homo sapiens, UniProt P01116, G12C); experiment: Raf1 RBD-KRAS G12C-GppNHp disruption (protein:protein interaction HTRF assay); type: biochemical
T2 construct: Avi-KRAS G12C (1-169) GppNHp/RAF1 RBD-3×FLAG (52-151)
Protocol: A protein: protein (PPI) interaction Homogeneous Time Resolved Fluorescence (HTRF) assay was used to determine the effectiveness of compounds of the present disclosure in disrupting KRAS G12C protein and effector (RAF1 or PIK3CA) binding.
The HTRF assay used the following reagents and proteins: 50 nM Avi-KRAS G12C Q25A (1-169) GppNHp/3×FLAG-PI3K CA (157-299); 50 nM Avi-KRAS G12C (1-169) GppNHp/RAF1 RBD-3×FLAG (52-151); 35 nM Avi-PI3K RBD-3×FLAG; Assay Buffer: 50 mM Tris pH 7.5, 100 mM NaCl, 5 mM MgCl2, 0.1% BSA, 0.01% Tween 20, 10% DMSO; Bead Buffer: 50 mM Tris pH 7.5, 0.01% Tween 20; Assay volume: 20 μL (384 well plate-low volume format); and Compound titration: 30-0.02 μM, 3× dilution series.
The HTRF assay employed the following protocol:
Compounds were dispensed in assay plate (384-well, Grenier Bione #784075) using Echo (model 555) with dose response settings: 200 nL final volume, titration from 100 μM as a 10-point dilution series. KRAS proteins were prepared in assay buffer, and dispensed on plates, 5 μL per well, then incubated for 1 h at room temperature, with 700 rpm shaking. RAF1 RBD and PI3K RBD CA were prepared in assay buffer, dispensed onto plates, 5 μL per well, and then incubated for 1 h at room temperature, with 700 rpm shaking. Reagent mix was then prepared and dispensed on plates, 10 μL per well, and then incubated for 1 h at room temperature, with 700 rpm shaking.
Plates were analyzed on an Envision plate reader using the following setting: Excitation 320 nm, Bandwidth 75 nm; Emission 615 nm, Bandwidth 85 nm; Gain 100%; Flashes 100; Lag 60 μs. Data was reported as percentage of activity, with DMSO as 100%. Data was plotted and analyzed using Prism 8.

[3] = target: T3, GDP-loaded KRAS4b (amino acids 1-169) G12C/C118S protein (Homo sapiens, UniProt P01116, C118S/G12C); experiment: Covalent cysteine 12 modification by MALDI-TOF MS, GDP-loaded KRAS G12C; type: binding; details: 15 minutes reaction time point
T3 construct: KRAS4b (amino acids 1-169) G12C/C118S protein; made in house
Protocol: as §1, §2, §3, §4, §5, §6

SMILES	IC50 (pERK in NCI-H358 cells)	GppNHp-KRAS G12C percent of modification [1]	IC50 [2]	GDP-KRAS G12C percent of modification [3]	IC50 (pERK in NCI-H358 cells; Homo sapiens, NCI-H358, 0.5 h)
C=CC(=O)N1CC[C@@H](Oc2nc(OC[C@@H]3CC(C)(C)CN3C)nc3c(F)c(-c4ccc(F)c5sc(N)nc45)c(C(F)(F)F)cc23)C1 (atropisomer, axis not shown) [Compound 16]	100 to 1000 nM	C (10%≤modification <50%)	500 to 5000 nM	A (percent of modification ≥70%)	
C=CC(=O)N1CC[C@@H](Oc2nc(OC[C@@H]3CC(C)(C)CN3C)nc3c(F)c(-c4ccc(F)c5sc(N)nc45)c(C(F)(F)F)cc23)C1 (atropisomer, axis not shown) [Compound 17]	> 1000 nM	D (percent of modification <10%)	> 20000 nM	D (percent of modification <10%)	
C=CC(=O)N1CC[C@@H](Oc2nc(OC[C@@H]3C[C@@H](F)CN3C)nc3c(F)c(-c4ccc(F)c5sc(N)nc45)c(C(F)(F)F)cc23)C1 (atropisomer, axis not shown) [Compound 18]	≤ 100 nM	C (10%≤modification <50%)	≤ 500 nM	A (percent of modification ≥70%)	
C=CC(=O)N1CC[C@@H](Oc2nc(OC[C@@H]3C[C@@H](F)CN3C)nc3c(F)c(-c4ccc(F)c5sc(N)nc45)c(C(F)(F)F)cc23)C1 (atropisomer, axis not shown) [Compound 19]	> 1000 nM	D (percent of modification <10%)	5000 to 20000 nM	D (percent of modification <10%)	
C=CC(=O)N1CCC[C@@H](Oc2nc(OC[C@@H]3C[C@@H](F)CN3C)nc3c(F)c(-c4ccc(F)c5sc(N)nc45)c(C(F)(F)F)cc23)C1 (atropisomer, axis not shown) [Compound 20]		D (percent of modification <10%)	5000 to 20000 nM	B (50≤percent of modification <70%)	> 1000 nM
C=CC(=O)N1CCC[C@@H](Oc2nc(OC[C@@H]3C[C@@H](F)CN3C)nc3c(F)c(-c4ccc(F)c5sc(N)nc45)c(C(F)(F)F)cc23)C1 (atropisomer, axis not shown) [Compound 21]	> 1000 nM	D (percent of modification <10%)	> 20000 nM	D (percent of modification <10%)	
